Measurements as given in patent EP0341019A2, “Polyether antibiotic” (priority 1988, dated 1989).
Converted amounts (≈) assume the structure as drawn.

How the values were obtained:
[1] = test system: Staphylococcus aureus V41; format: cell-based; details: V41, 24 h
[2] = test system: Staphylococcus epidermidis 270; format: cell-based; details: Staphylococcus epidermidis, 270, 24 h
[3] = test system: Streptococcus pyogenes C203; format: cell-based; details: C203, 24 h
[4] = test system: Streptococcus pneumoniae Park 1; format: cell-based; details: 24 h
[5] = test system: Haemophilus influenzae C.L.; format: cell-based; details: 24 h
Escherichia coli N10 = format: cell-based; details: N10, 24 h
Escherichia coli EC14 = format: cell-based; details: EC14, 24 h
[6] = test system: Enterobacter aerogenes EB17; format: cell-based; details: Klebsiella aerogenes, EB17, 24 h
[7] = test system: Pseudomonas aeruginosa X528; format: cell-based; details: X528, 24 h
[8] = test system: Pseudomonas aeruginosa PS18; format: cell-based; details: PS18, 24 h
[9] = test system: Pseudomonas aeruginosa PS72; format: cell-based; details: PS72, 24 h
Serratia marcescens X99 = format: cell-based; details: X99, 24 h
[10] = test system: Peptococcus asaccharolyticus 1302; format: cell-based; details: Peptoniphilus asaccharolyticus, 1302, 24 h
Peptococcus prevoti 1281 = format: cell-based; details: 24 h
[11] = test system: Propionibacterium acnes 79; format: cell-based; details: Cutibacterium acnes, 79, 24 h
[12] = test system: Bacteroides fragilis 1936B; format: cell-based; details: 24 h
[13] = test system: Bacteroides thetaiotaomicron 1438; format: cell-based; details: 24 h
[14] = test system: Bacteroides melaninogenicus 1856/28; format: cell-based; details: Prevotella intermedia, 1856/28, 24 h
[15] = test system: Bacteroides melaninogenicus 2736; format: cell-based; details: 2736, 24 h
[16] = test system: Bacteroides vulgatis 1211; format: cell-based; details: Bacteroides, 1211, 24 h
[17] = test system: Bacteroides corrodens 1874; format: cell-based; details: Eikenella corrodens, 1874, 24 h
[18] = test system: Fusobacterium necrophorum 6054A; format: cell-based; details: 24 h
Eimeria tenella = experiment: in vitro tissue-culture anticoccidial screen; format: cell-based; details: in vitro tissue-culture screen against Eimeria tenella
Text: Anticoccidial activity is an important property of the A82810 compounds. For example, in an in vitro tissue-culture screen against Eimeria tenella, A82810 was active at <0.0025 mcg/mL, propionyl-A82810 was active at 0.05 mcg/mL and acetyl-A82810 was active at 0.01 mcg/mL.

[19] = test system: Herpes simplex viruses (HSV II); experiment: antiviral tissue-culture test; format: cell-based, Herpes simplex virus
Friend leukemia virus = experiment: antiviral tissue-culture test; format: cell-based
Brazil influenza virus = format: cell-based; details: tissue culture
[20] = test system: Eimeria acervulina Strain FS-316 And E. tenella Strain FS-456; experiment: anticoccidial feed test in infected chickens, ionophore-resistant strains; format: in vivo
E. maxima Strain LIT-626 = experiment: anticoccidial feed test in infected chickens, ionophore-resistant strain; format: in vivo
[21] = test system: Eimeria acervulina H & C and Eimeria tenella Wis; experiment: anticoccidial feed test in infected chickens, ionophore-sensitive strains; format: in vivo
[22] = effect on growth of uninfected chicks; format: in vivo; details: Table XXI, Compound ppm r3-r7: 0,8,10,12,14
Text: Newly hatched chickens are raised in a coccidial-free environment for a seven-day period. On the morning of the eighth day, the chickens are weighed and assigned to treatment groups.
Each group of chicks (usually 4 or 5 chicks per group) is housed in a battery cage during the experiment. A constant lighting schedule and ad libitum access to feed (each experiment contains non-medicated and drug-medicated treatments) and water are provided for the chicks in each battery. Two days after the experiment is initiated, chicks that are designated to be infected are crop-intubated with a pure suspension of coccidial oocysts. The oocyst dosage used in each test is designed to produce clinical coccidiosis in infected nonmedicated animals.
After an additional seven-day growth period, the experiment is terminated. Each group of chicks is weighed, and the amount of feed consumed by each group is determined. From these measurements, final bird weights and efficiency of feed utilization are calculated. All birds are then sacrificed, and the intestine. and cecum are examined for the presence of coccidial-induced lesions.

## CC[C@@H](O)[C@]1(C)C[C@H](C)[C@@](O)([C@H]2C[C@H](C)[C@H]([C@]3(C)C[C@@H](O[C@H]4CC[C@H](OC)[C@@H](C)O4)[C@H]([C@]4(C)CC[C@@]5(O[C@H]([C@@H](C)[C@@H](OC)[C@H](C)C(=O)O)[C@H](C)[C@@H](OC)[C@H]5C)O4)O3)O2)O1 [Example A82810]
[1]
  MIC: 1 µg/mL (≈ 1.19 µM)
[2]
  MIC: 1 µg/mL (≈ 1.19 µM)
[3]
  MIC: 1 µg/mL (≈ 1.19 µM)
[4]
  MIC: 1 µg/mL (≈ 1.19 µM)
[5]
  MIC: 128 µg/mL (≈ 152 µM)
Escherichia coli N10
  MIC: 1 µg/mL (≈ 1.19 µM)
Escherichia coli EC14
  MIC: 8 µg/mL (≈ 9.49 µM)
[6]
  MIC: 8 µg/mL (≈ 9.49 µM)
[7]
  MIC: 2 µg/mL (≈ 2.37 µM)
[8]
  MIC: > 128 µg/mL
[9]
  MIC: 0.25 µg/mL (≈ 0.297 µM)
Serratia marcescens X99
  MIC: > 128 µg/mL
[10]
  MIC: ≤ 0.25 µg/mL
Peptococcus prevoti 1281
  MIC: ≤ 0.25 µg/mL
[11]
  MIC: 2 µg/mL (≈ 2.37 µM)
[12]
  MIC: 8 µg/mL (≈ 9.49 µM)
[13]
  MIC: 8 µg/mL (≈ 9.49 µM)
[14]
  MIC: 8 µg/mL (≈ 9.49 µM)
[15]
  MIC: 8 µg/mL (≈ 9.49 µM)
[16]
  MIC: 4 µg/mL (≈ 4.74 µM)
[17]
  MIC: 8 µg/mL (≈ 9.49 µM)
[18]
  MIC: ≤ 0.25 µg/mL
Eimeria tenella
  active at: < 0.0025 µg/mL
[19]
  active at levels as low as: 1.56 µg/mL
Friend leukemia virus
  active at levels as low as: 0.04 µg/mL
Brazil influenza virus
  active at a level of: 250 µg/mL
[20]; 0.5 ppm
  TOTAL LESION SCORE: 8.7
  WEIGHT GAIN, PERCENT OF CONTROL: 87% OF CONTROL
[20]; 1 ppm
  TOTAL LESION SCORE: 9.3
  WEIGHT GAIN, PERCENT OF CONTROL: 89% OF CONTROL
[20]; 1.5 ppm
  TOTAL LESION SCORE: 7.7
  WEIGHT GAIN, PERCENT OF CONTROL: 95% OF CONTROL
[20]; 2 ppm
  TOTAL LESION SCORE: 9.6
  WEIGHT GAIN, PERCENT OF CONTROL: 93% OF CONTROL
[20]; 2.5 ppm
  AVERAGE CECAL LESION SCORES: 3.2
  AVERAGE INTESTINAL LESION SCORES: 2.3
  WEIGHT GAIN, PERCENT OF CONTROL: 81% OF CONTROL
[20]; 3 ppm
  AVERAGE CECAL LESION SCORES: 2.9
  AVERAGE INTESTINAL LESION SCORES: 3.3
  WEIGHT GAIN, PERCENT OF CONTROL: 77% OF CONTROL
[20]; 3.5 ppm
  AVERAGE CECAL LESION SCORES: 3.2
  AVERAGE INTESTINAL LESION SCORES: 3.0
  WEIGHT GAIN, PERCENT OF CONTROL: 85% OF CONTROL
[20]; 5 ppm
  AVERAGE CECAL LESION SCORES: 2.3
  AVERAGE INTESTINAL LESION SCORES: 1.3
  WEIGHT GAIN, PERCENT OF CONTROL: 95% OF CONTROL
[20]; 6 ppm
  AVERAGE CECAL LESION SCORES: 3.2
  AVERAGE INTESTINAL LESION SCORES: 1.7
  WEIGHT GAIN, PERCENT OF CONTROL: 98% OF CONTROL
E. maxima Strain LIT-626; 1.25 ppm
  AVERAGE INTESTINAL LESION SCORES: 3.7
  WEIGHT GAIN, PERCENT OF CONTROL: 99% OF CONTROL
E. maxima Strain LIT-626; 1.5 ppm
  AVERAGE INTESTINAL LESION SCORES: 3.3
  WEIGHT GAIN, PERCENT OF CONTROL: 102% OF CONTROL
E. maxima Strain LIT-626; 1.75 ppm
  AVERAGE INTESTINAL LESION SCORES: 4.0
  WEIGHT GAIN, PERCENT OF CONTROL: 101% OF CONTROL
E. maxima Strain LIT-626; 2 ppm
  AVERAGE INTESTINAL LESION SCORES: 3.3
  WEIGHT GAIN, PERCENT OF CONTROL: 94% OF CONTROL
[21]; 2 ppm
  AVERAGE INTESTINAL LESION SCORES: 1.2
  WEIGHT GAIN, PERCENT OF CONTROL: 98% OF CONTROL
[21]; 6 ppm
  AVERAGE INTESTINAL LESION SCORES: 0.4
  WEIGHT GAIN, PERCENT OF CONTROL: 91% OF CONTROL
[21]; 10 ppm
  AVERAGE INTESTINAL LESION SCORES: 0.3
  WEIGHT GAIN, PERCENT OF CONTROL: 80% OF CONTROL
[22]; A82810 1.25 ppm
  WEIGHT GAIN, PERCENT OF CONTROL: 98% OF CONTROL
[22]; A82810 1.5 ppm
  WEIGHT GAIN, PERCENT OF CONTROL: 101% OF CONTROL
[22]; A82810 1.75 ppm
  WEIGHT GAIN, PERCENT OF CONTROL: 105% OF CONTROL
[22]; A82810 2.0 ppm
  WEIGHT GAIN, PERCENT OF CONTROL: 99% OF CONTROL
